Measurements taken from US12077503B2, “Substituted cyclic amides and their use as herbicides” (FMC CORPORATION, priority 2015, dated 2024).

Experiments:
Assay type in all cases: in vivo
[1] = tested on: ragweed (common ragweed, Ambrosia elatior); experiment: Test A postemergence; details: postemergence
In short: (§1)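 Visual injury, scored on a 0–100 scale relative to untreated controls, was recorded about 10 d after application. Treatments were a preemergence soil spray over planted seeds or a postemergence spray on plants at the one- to two-leaf stage, 2 to 10 cm tall, all in loam soil–sand blend in the greenhouse.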

[2] = tested on: ryegrass, Italian (Italian ryegrass, Lolium multiflorum); experiment: Test A postemergence; details: postemergence
In short: as §1

[3] = tested on: Galium (catchweed bedstraw, Galium aparine); experiment: Test A postemergence; details: postemergence
In short: as §1

[4] = tested on: giant foxtail (Setaria faberii); experiment: Test A postemergence; details: postemergence
In short: as §1

[5] = tested on: corn (Zea mays); experiment: Test A postemergence
In short: as §1

[6] = tested on: barnyardgrass (Echinochloa crus-galli); experiment: Test A postemergence
In short: as §1

[7] = tested on: pigweed (Amaranthus retroflexus); experiment: Test A postemergence; details: postemergence
In short: as §1

[8] = tested on: wheat (Triticum aestivum); experiment: Test A postemergence; details: postemergence
In short: as §1

[9] = tested on: blackgrass (Alopecurus myosuroides); experiment: Test A postemergence
In short: as §1

[10] = tested on: Kochia (Kochia scoparia); experiment: Test A postemergence; details: postemergence
In short: as §1

[11] = tested on: ragweed (common ragweed, Ambrosia elatior); experiment: Test A preemergence
In short: as §1

[12] = tested on: ryegrass, Italian (Italian ryegrass, Lolium multiflorum); experiment: Test A preemergence
In short: as §1

[13] = tested on: giant foxtail (Setaria faberii); experiment: Test A preemergence
In short: as §1

[14] = tested on: barnyardgrass (Echinochloa crus-galli); experiment: Test A preemergence
In short: as §1

[15] = tested on: pigweed (Amaranthus retroflexus); experiment: Test A preemergence
[16] = tested on: Kochia (Kochia scoparia); experiment: Test A preemergence
In short: as §1

[17] = tested on: ducksalad (Heteranthera limosa); experiment: Test B flooded paddy test; details: Flood, 250 g ai/ha; 0 to 100 scale where 0 is no effect and 100 is complete control; 13 to 15 d
In short: (§2)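 Rating scale 0–100 (visual, vs untreated controls) after a 13–15 d greenhouse period; application to the flood layer, 3 cm above soil and maintained; plants at 2-leaf stage when treated.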

[18] = tested on: barnyardgrass (Echinochloa crus-galli); experiment: Test B flooded paddy test; details: Flood, 250 g ai/ha; 0 to 100 scale where 0 is no effect and 100 is complete control; 13 to 15 d
In short: as §2

[19] = tested on: sedge, umbrella (small-flower umbrella sedge, Cyperus difformis); experiment: Test B flooded paddy test; details: Flood, 250 g ai/ha; 0 to 100 scale where 0 is no effect and 100 is complete control; 13 to 15 d
In short: as §2

[20] = tested on: rice (Oryra sativa); experiment: Test B flooded paddy test; details: Flood, 250 g ai/ha; 0 to 100 scale where 0 is no effect and 100 is complete control; 13 to 15 d
In short: as §2

[21] = tested on: lambsquarters (Chenopodium album); experiment: Test C preemergence; details: for Plant response rating, Lambsquarters: scale 0 to 100, 0 no effect, 100 complete control
Source text: Seeds of plant species selected from blackgrass (Alopecurus myosuroides), ryegrass, Italian (Italian ryegrass, Lolium multiflorum), wheat (winter wheat, Triticum aestivum), Galium (catchweed bedstraw, Galium aparine), corn (Zea mays), crabgrass, large (large crabgrass, Digitaria sanguinalis), foxtail, giant (giant foxtail, Setaria faberii), johnsongrass (Sorghum halepense), lambsquarters (Chenopodium album), morningglory (Ipomoea coccinea), nutsedge, yellow (yellow nutsedge, Cyperus esculentus), pigweed (Amaranthus retroflexus), ragweed (common ragweed, Ambrosia elatior), soybean (Glycine max), barnyardgrass (Echinochloa crus-galli), oilseed rape (Brassica napus), waterhemp (common waterhemp, Amaranthus rudis) and velvetleaf (Abutilon theophrasti) were planted into a blend of loam soil and sand and treated preemergence with test chemicals formulated in a non-phytotoxic solvent mixture which included a surfactant.
At the same time, plants selected from these crop and weed species and also Kochia (Kochia scoparia), oat, wild (wild oat, Avena fatua), and chickweed (common chickweed, Stellaria media) were planted in pots containing Sunshine Redi-Earth® planting medium comprising spaghnum peat moss, vermiculite, starter nutrients and dolomitic limestone and treated with postemergence applications of test chemicals formulated in the same manner. Plants ranged in height from 2 to 18 cm (1- to 4-leaf stage) for postemergence treatments. Treated plants and controls were maintained in a greenhouse for 13 to 15 d, after which time all species were compared to controls and visually evaluated. Plant response ratings, summarized in Table C, are based on a scale of 0 to 100 where 0 is no effect and 100 is complete control. A dash (-) response means no test result.

[22] = 125 g ai/ha, visual injury rating on 0 to 100 scale (0 no effect, 100 complete control), approx. 10 d
[23] = 500 g ai/ha, 0 to 100 scale, 0 no effect, 100 complete control
[24] = 125 g ai/ha, postemergence, visual injury rating on 0 to 100 scale (0 no effect, 100 complete control), approx. 10 d
[25] = 500 g ai/ha, postemergence, 0 to 100 scale, 0 no effect, 100 complete control
[26] = 125 g ai/ha, preemergence, 0 to 100 scale (0 no effect, 100 complete control)
[27] = Preemergence, 500 g ai/ha, visual injury approx. 10 d
[28] = 125 g ai/ha, visual rating after approx. 10 d, 0 to 100 scale (0 no effect, 100 complete control)
[29] = 500 g ai/ha, visual injury, 0 to 100 scale (0 no effect, 100 complete control), approx. 10 d
[30] = 125 g ai/ha, postemergence, visual rating after approx. 10 d, 0 to 100 scale (0 no effect, 100 complete control)
[31] = Postemergence, 500 g ai/ha, 0 to 100 scale where 0 is no effect and 100 is complete control
[32] = 125 g ai/ha, Preemergence, visual injury after approximately 10 d, 0 to 100 scale where 0 is no effect and 100 is complete control
[33] = 500 g ai/ha, preemergence, 0 to 100 scale, 0 = no effect, 100 = complete control

## Cc1ccc(C2CN(C)C(=O)C2C(=O)Nc2cccc(F)c2F)cc1F (stereo not shown) [Compound 464]
[1]; [22]
  Ragweed plant response rating: 30
[1]; [23]
  Plant response rating, Ragweed: 30
[2]; [22]
  Ryegrass, Italian plant response rating: 70
[2]; [23]
  Plant response rating, Ryegrass, Italian: 80
[3]; [22]
  Galium plant response rating: 60
[3]; [23]
  Plant response rating, Galium: 70
[4]; [22]
  Foxtail, Giant plant response rating: 90
[4]; [23]
  Plant response rating, Foxtail, Giant: 90
[5]; [24]
  Corn plant response rating: 90
[5]; [25]
  Plant response rating, Corn: 90
[6]; [24]
  Barnyardgrass plant response rating: 90
[6]; [25]
  Plant response rating, Barnyardgrass: 90
[7]; [22]
  Pigweed plant response rating: 40
[7]; [23]
  Plant response rating, Pigweed: 50
[8]; [22]
  Wheat plant response rating: 70
[8]; [23]
  Plant response rating, Wheat: 70
[9]; [24]
  Blackgrass plant response rating: 60
[9]; [25]
  Plant response rating, Blackgrass: 70
[10]; [22]
  Kochia plant response rating: 50
[10]; [23]
  Plant response rating, Kochia: 60
[11]; [26]
  Plant response rating, Ragweed: 50
[12]; [26]
  Plant response rating, Ryegrass, Italian: 70
[12]; [27]
  Ryegrass, Italian plant response rating (0 to 100 scale, 0 is no effect, 100 is complete control): 90
[13]; [26]
  Plant response rating, Foxtail, Giant: 90
[13]; [27]
  Foxtail, Giant plant response rating (0 to 100 scale, 0 is no effect, 100 is complete control): 90
[14]; [26]
  Plant response rating, Barnyardgrass: 90
[14]; [27]
  Barnyardgrass plant response rating (0 to 100 scale, 0 is no effect, 100 is complete control): 90
[15]; [26]
  Plant response rating, Pigweed: 70
[15]; [27]
  Pigweed plant response rating (0 to 100 scale, 0 is no effect, 100 is complete control): 70
[16]; [26]
  Plant response rating, Kochia: 70
[16]; [27]
  Kochia plant response rating (0 to 100 scale, 0 is no effect, 100 is complete control): 80
[17]
  Plant response rating, Ducksalad: 100
[18]
  Plant response rating, Barnyardgrass: 70
[19]
  Plant response rating, Sedge, Umbrella: 0
[20]
  Plant response rating, Rice: 20
[21]; 31 g ai/ha
  Plant response rating, Lambsquarters: 45
[21]; 62 g ai/ha
  Plant response rating, Lambsquarters: 80
[21]; 125 g ai/ha
  Plant response rating, Lambsquarters: 80
[21]; 250 g ai/ha
  Plant response rating, Lambsquarters: 90

## CN1CC(c2cccc(C(F)(F)F)c2)C(C(=O)Nc2cccc(F)c2F)C1=O (stereo not shown) [Compound 636]
[1]; [28]
  Plant response rating, Ragweed: 0
[1]; [29]
  Plant response rating, Ragweed: 30
[2]; [28]
  Plant response rating, Ryegrass, Italian: 50
[2]; [29]
  Plant response rating, Ryegrass, Italian: 70
[3]; [28]
  Plant response rating, Galium: 50
[3]; [29]
  Plant response rating, Galium: 50
[4]; [28]
  Plant response rating, Foxtail, Giant: 90
[4]; [29]
  Plant response rating, Foxtail, Giant: 90
[5]; [30]
  Plant response rating, Corn: 70
[5]; [31]
  Plant response rating, Corn: 80
[6]; [30]
  Plant response rating, Barnyardgrass: 90
[6]; [31]
  Plant response rating, Barnyardgrass: 90
[7]; [28]
  Plant response rating, Pigweed: 30
[7]; [29]
  Plant response rating, Pigweed: 50
[8]; [28]
  Plant response rating, Wheat: 60
[8]; [29]
  Plant response rating, Wheat: 60
[9]; [30]
  Plant response rating, Blackgrass: 60
[9]; [31]
  Plant response rating, Blackgrass: 60
[10]; [28]
  Plant response rating, Kochia: 50
[10]; [29]
  Plant response rating, Kochia: 60
[11]; [32]
  Plant response rating, Ragweed: 20
[11]; [33]
  Plant response rating, Ragweed: 70
[12]; [32]
  Plant response rating, Ryegrass, Italian: 90
[12]; [33]
  Plant response rating, Ryegrass, Italian: 90
[13]; [32]
  Plant response rating, Foxtail, Giant: 90
[13]; [33]
  Plant response rating, Foxtail, Giant: 90
[14]; [32]
  Plant response rating, Barnyardgrass: 90
[14]; [33]
  Plant response rating, Barnyardgrass: 90
[15]; [32]
  Plant response rating, Pigweed: 40
[15]; [33]
  Plant response rating, Pigweed: 80
[16]; [32]
  Plant response rating, Kochia: 50
[16]; [33]
  Plant response rating, Kochia: 70
[17]
  Plant response rating, Ducksalad: 100
[18]
  Plant response rating, Barnyardgrass: 70
[19]
  Plant response rating, Sedge, Umbrella: 0
[20]
  Plant response rating, Rice: 0
[21]; 31 g ai/ha, 0 is no effect, 100 is complete control
  Plant response rating (scale of 0 to 100), Lambsquarters: 40
[21]; 62 g ai/ha
  Plant response rating, Lambsquarters: 40
[21]; 125 g ai/ha
  Plant response rating, Lambsquarters: 55
[21]; 250 g ai/ha
  Plant response rating, Lambsquarters: 65
